Experiments:
Format in all cases: cell-based, human
[1] = test system: MDA-MB-231 breast cancer cells; assay: Exosome release by acetylcholinesterase (AchE) assay, MDA-MB-231; details: for average AChE concentration day 1 to 5: MDA-MB-231 cells, five-day treatment
Procedure: 1-6. Exosome isolation and purification. Exosomes were isolated from breast cancer cells by differential centrifugation as previously described (Ali SA. et al., 2010). Untreated tumor cells were used as a control. Briefly, the above treated and untreated cell culture supernatants were centrifuged at 400×g for 10 minutes. The supernatants were transferred to a clear tube and centrifuged at 10,000×g for 30 minutes. The supernatants from the second spin were ultracentrifuged at 200,000×g for 2 hours to pellet exosomes. Finally, the exosome pellets were re-suspended with PBS and stored at 4° C. until used for analysis.
1-7. Exosome characterization by acetylcholinesterase (AchE) assay. Purified exosomes were quantitated by measurement of AchE as described (Ellman et al., 1961). Briefly, a 100 mM dithibionitrobenzoic (DTNB) solution was prepared for use as a stock color indicator, and a 28.9 mg/mL acetylthiocholine iodide in PBS solution was prepared as a stock substrate. The stock substrate stock can be stored at −20° C. up to one month, while the color indicator can be stored at 4° C. for two weeks. A working solution was prepared by mixing 10 mL of PBS with 200 μL of Substrate and 500 μl of DTNB. 50 μL of each exosome sample was transferred to 96 well microtitre plates, and a standard curve was prepared using AchE from 0.98 mU/mL to 2000 mU/mL. After 50 μL of standards were added into separate wells, 200 μL of the working solution was added to all wells. After 20 min incubation, AchE activity was measured at 450 nm using a SpectroMax M5 fluorimeter.
7-5. Exosome isolation and purification. Exosomes were isolated from breast cancer cells and leukemia cells using the ExoQuick-TC Exosome Precipitation Kit (System Biosciencences [SBI], Mountain View Calif.) or the miRCURY Exosome Isolation Kit (EXIQON, Woburn, Mass.) according to the manufacturer's instructions. Untreated tumor cells were used as a control. Briefly, treated and untreated cell culture supernatants (10 mL) were centrifuged at 3000×g for 15 minutes. The resulting supernatants were transferred to a clear tube, 2 mL of ExoQuick-TC buffer was added, mixed and incubated overnight at 4° C. Following the incubation, the sample contents were centrifuged at 1500×g for 30 minutes, the supernatants were aspirated off, the pellets were centrifuged at 1500×g for 5 minutes and any further traces of supernatant were removed (SBI). Alternatively, treated and untreated cell culture supernatants were centrifuged at 10,000×g for 5 minutes to remove cell debris, supernatants (10 ml) were transferred into new tubes, and 4 mL of precipitation buffer (EXIQON) was added, and the contents were mixed and incubated at 4° C. overnight. Following the incubation, the sample contents were centrifuged at 10,000×g for 30 minutes (EXIQON). Exosome-containing pellets were re-suspended in PBS and stored at 4° C. or −80° C.
7-6. Exosome characterization by acetylcholinesterase (AchE) assay. Purified exosomes were quantitated by measurement of AchE as previously described (Huang et al., Oncotarget, 2017. 8(7): pp. 11302-11315). Briefly, 100 mM dithibionitrobenzoic (DTNB) was prepared as a stock color indicator, and prepared a stock substrate containing 28.9 mg/mL of acetylthiocholine iodide in PBS. Substrate stock can be stored at −20° C. up to one month; the stock color indicator can be stored at 4° C. for two weeks. A working solution was prepared by mixing 10 mL of PBS with 200 μL of substrate and 500 μl of DTNB. 50 μL of each exosome sample was transferred to a 96 well microtitre plate, and a standard curve for AchE concentrations was prepared using AchE from 0.98 mU/mL to 2000 mU/mL. After 50 μL of standards were added into separate wells, 200 μL of the working solution was added to each well. After a 20 min incubation, AchE activity was measured at 450 nm using a SpectroMax M5 fluorometer (FIG. 11).

[2] = test system: MDA-MB-231 breast cancer cells; assay: InnoCyte cell migration assay, MDA-MB-231; details: MDA-MB-231 cells, 280 nM SMR peptide or 3 μM Latrunculin A, 24 hours
Procedure: 7-12. Cell migration assay. Cell migration assays were performed using the InnoCyte Cell Migration Assay (EMD Millipore Corporation, Temecula, Calif.) according to the manufacturer's instructions. Briefly, cell migration was monitored in the presence and absence of SMRwt peptides or latrunculin A (positive control inhibitor), which were added to the lower chamber of a 96-well plate. MCF-7 and MDA-MB-231 breast cancer cells and non-tumorigenic MCF-10A breast cells were harvested by 0.25% Trypsin-EDTA (Life Technologies) release and resuspended at 250,000500,000 cells/ml in serum-free RPMI 1640 media. A total of 25,000-50,000 cells was added to the upper chamber and allowed to migrate through an 8-μm pore-size membrane for 24 hours at 37° C. in a 5% CO2 atmosphere. Cells that migrated through the membrane were detached and labeled with Calcein-AM fluorescent dye. Fluorescence was measured using a Fluorescence Plate Reader (Molecular Devices, Sunnyvale, Calif.) with an excitation wavelength of 485 nm and an emission wavelength of 515 nm. The experiment was repeated in triplicate, and each conditioned experiment was performed in quadruplicate.

K562 cells = assay: Complement-mediated cell cytotoxicity assay (trypan blue), K562; details: for cell death under complement-positive conditions: 280 nM PEG-SMRwt-Clu or 560 nM SMRwt-CPP 60 min, then anti-CXCR4 antibody and NHS 60 min; for cell death under complement-negative conditions: 280 nM PEG-SMRwt-Clu or 560 nM SMRwt-CPP, 60 min
Procedure: 7-9. Complement-mediated cell cytotoxicity assay. Complement-mediated cell cytotoxicity assays were performed as previously described (Reiter et al., Mol Immunol. (1992) 29(6): p. 771-81). Briefly, MCF-7, MDA-MB-231 and K562 cells were either mock-transfected or transfected with mortalin siRNA. Cells were incubated with 1 μg/ml of anti-CXCR4 antibody for 30 min at 4° C., followed by treatment with PEG-SMRwt-Clu peptide or PEG-SMRmut-Clu peptide or SMRwt-CPP peptide or SMRmut-CPP peptide alone, or treated with SMR peptide combined with complement from normal human serum (NHS) or heat-inactivated normal human serum (NIS) for 60 min at 37° C. Percentage of cells lysed were determined by a trypan blue exclusion assay using the TC10™ Automated Cell Counter (Bio-Rad, Richmond Calif.). (FIG. 14, FIG. 15, Panel D).

Sequence	average AChE concentration day 1 to 5 [1]	reduced migration by [2]	cell death under complement-positive conditions (K562 cells)	cell death under complement-negative conditions (K562 cells)	AchE activity in exosomes ([1]; MDA-MB-231 cells treated 48 hr, control exosomes 118.48 mU/mL)
VGFPVAAVGFPVGRKKRRQRRRPPQ [SMRwt-CPP]	29 mU/mL	46.39%	23%	4.3%	
NXNVGFPVAAVGFPVHPLSKHPYWSQP (SEQ ID NO: 37) [PEG-SMRwt-Clu]	42 mU/mL	52.37%	55%	4.3%	66.77 mU/mL

Reference: patent US11472846B2, “Compositions and methods for treating diseases by inhibiting exosome release” (priority 2016, dated 2022)
